In patent publication US20230235374A1, “High Throughput Assays for Detecting Translation Readthrough Inducers” (The Trustees of the University of Pennsylvania, priority 2021, published 2023):

How the values were obtained:
[1] = tested on: Atto(pep)-Stop-POST5 (RFC-dependent termination); test: Plate reader fluorescence anisotropy assay of pentapeptide release; format: biochemical, shrimp (Artemia salina); details: added ataluren 200-1,000 μM
Experimental: Plate reader assays were run in a Tecan F200® 96-well plate reader (Greiner® black, non-binding, chimney flat) equipped with 640 nm excitation and 700 nm polarization filters using 96-well plates. Atto(pep)-Stop-POST5 in Buffer 4 (0.1 μM, 80 μl) containing GTP (1 mM) was added to plate wells±ataluren at 25° C. eRF1 and eRF3 aliquots stored at −80° C. were thawed for 15 s at 37° C. and added directly to a premade ice-cold GTP (1 mM)±ataluren solution in Buffer 4. The resulting release factor solution was incubated at 25° C. for 1 min, and then added quickly in 80 μL portions to the Atto(pep)-Stop-POST5 containing wells with a multichannel pipette to the Atto(pep)-Stop-Posts wells. The final concentrations were: eRF1, 0.025-0.4 μM; eRF3, 0.8 μM; Atto(pep)-Stop-Posts, 0.05 μM. Fluorescence anisotropy decay graphs were fit with GraphPad Prism, using the one phase decay model to obtain peptide dissociation rates.
Ensemble fluorescence anisotropy results using Atto(pep)-Stop-POST5. The fluorescence anisotropy of the pentapeptidyl moiety of Atto(pep)-Stop-POST5 was quite high (0.22), and decreased following addition of RFC, providing a convenient measure of the rate of pentapeptide release from the ribosome. […] Each such time dependency could be fit to a single exponential, giving the collected rate constants presented in FIG. 9G, in which the rate dependence as a function of RFC concentration was measured at 0, 200, 500, and 1,000 μM ataluren. In the absence of ataluren, EC50 (0.029±0.002 μM) and Vmax (0.31±0.02) values were obtained for pentapeptide release similar to those measured by smTIRF. In addition, as with the smTIRF results, Vmax values were unaffected by added ataluren but EC50 values increased, reaching ˜0.06 μM at 1000 μM.

[2] = tested on: premature stop codon in Stop-POST5 complex; test: PURE-LITE readthrough assay; format: biochemical, shrimp (Artemia salina); details: FIG. 2A, read-out: apparent EC50, readthrough efficacy
Experimental: FIG. 2A, FIG. 2B, FIG. 2C, FIG. 2D, FIG. 2E, and FIG. 2F are graphs showing AzAt Photoaffinity Labeling and binding. FIG. 2A is a graph showing the readthrough efficacy of AzAt measured by PURE-Lite readthrough assay. AzAt is shown to display similar sigmoidal response as ataluren and ataluren-like compounds (Ng et al., 2018), with the apparent EC50 of 50±10 μM. FIG. 2B illustrates AzAt photoincorporation into Stop-POST5 and the RNA fraction of Stop-POST5. FIG. 2C illustrates AzAt photoincorporation into 80S-IRES and the total RNA isolated from 80S.IRES. All of the labeling stoichiometries in FIG. […] are normalized to the saturation labeling of Stop-POST5, which was equal to 1.2/Stop-POST5. FIG. 2D illustrates AzAt photoincorporation into eRF1 both alone and complexed with eRF3.GDPNP. The values are normalized to the saturation labeling of isolated eRF1. FIG. 2E illustrates inhibition of AzAt photoincorporation by the addition of either ataluren or GJ072. FIG. 2F is a graph showing Photoaffinity labeling of eRF3 alone or within release factor ternary complex. […] FIG. 2G and FIG. 2H are graphs showing the RNA-seq reads coverage as the effective reads per nucleotide. PRE: treated with 300 μM prephotolysed AzAt; PAL: treated with 300 μM AzAt. 26S-rRNA nucleotides 1-45 were unable to be mapped due to the lack of sequence information. […]

eRF3 = molecular target: T1, eRF3 (Saccharomyces cerevisiae, UniProt P05453); test: [3H]-AzAt photoaffinity labeling of eRF3; format: binding; details: near linear response to AzAt concentration
T1 construct: amino acid residues (166-685) of the eRF3 open reading frame; made in house; host or cells: E. coli BL21(DE3) CodonPlus
Experimental: Photoaffinity labeling with [^3H]-AzAt. Samples in Buffer 4, typically 20 μL, were incubated in the dark (20 min for Stop-POST5 and 80S-IRES complexes, 2 min for release factors) with various concentrations of [^3H]-AzAt at 37° C., transferred to a UV-transparent cuvette which was covered with parafilm to prevent evaporation, and irradiated in a Rayonet photochemical reactor equipped with 300 nm UV lamps for 5 min at room temperature. This was followed by quenching with 2 mM DTT at 37° C. for 5 min under ambient light. The irradiation time gave complete photolysis of the phenyl azide moiety in AzAt. Photolysis was also complete at 5 min in the presence of 1 mM ataluren, ruling out internal filtering effects.
Photoaffinity labeling of release factors. Solutions containing eRF1 (10 μM), eRF3 (20 μM) and 1 mM GMPPMP were pre-incubated at 37° C. for 2 min to form the ternary complex prior to photolabeling with [^3H]-AzAt. After quenching, reaction mixtures were loaded onto a 4-15% mini protean SDS-PAGE gel for protein separation and isolation. Gel slices containing eRF1 or eRF3, as shown by Coomassie Blue R250 staining, were crushed and the radioactivity was extracted in extraction buffer (50 mM Tris-HCl, 150 mM NaCl, and 0.1 mM EDTA; pH 7.5) by vigorously shaking at 70° C. for 30 min. The data fitting was performed using the software Prism. […]

T1 sequence (P05453 166-685): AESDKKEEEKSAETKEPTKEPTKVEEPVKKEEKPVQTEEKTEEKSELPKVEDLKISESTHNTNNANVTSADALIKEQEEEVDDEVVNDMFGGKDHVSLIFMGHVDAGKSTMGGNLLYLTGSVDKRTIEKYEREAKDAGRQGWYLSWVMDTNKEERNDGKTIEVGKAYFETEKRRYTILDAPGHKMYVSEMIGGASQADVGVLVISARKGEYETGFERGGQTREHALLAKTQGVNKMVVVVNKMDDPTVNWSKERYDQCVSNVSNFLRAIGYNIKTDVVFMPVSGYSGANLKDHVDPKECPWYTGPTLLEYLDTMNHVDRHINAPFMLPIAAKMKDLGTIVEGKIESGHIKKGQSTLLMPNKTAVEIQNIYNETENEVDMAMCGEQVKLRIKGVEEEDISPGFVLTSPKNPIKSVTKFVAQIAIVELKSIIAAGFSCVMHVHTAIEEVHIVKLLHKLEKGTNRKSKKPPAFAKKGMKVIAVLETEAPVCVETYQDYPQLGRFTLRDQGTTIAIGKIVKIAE

| SMILES | effect on Vmax values [1] | EC50 [2] | nature of photo-incorporation into eRF3 (eRF3) |
| --- | --- | --- | --- |
| O=C(O)c1cccc(-c2noc(-c3ccccc3F)n2)c1 [Ataluren] | unaffected |  |  |
| [N-]=[N+]=Nc1ccc(-c2nc(-c3cccc(C(=O)O)c3)no2)cc1 [AzAt] |  | 50 ± 10 µM | nonspecific binding |
